Each block holds one compound with its values, some of them ahead of it.
Experiments:
[1] = Rodent pharmacokinetics, male CD1 mouse, plasma PK; format: in vivo; conditions: for clearance / AUC / AUC(0-inf) / AUC(0-t) / Cmax / Vd / half-life: male, CD1, mouse
Description: Formulation: 10% DMSO, 90% Saline Dosing: 10 mg/kg P.O. and 5 mg/kg I.V. Plasma PK Summary:
Formulation: 10% DMSO, 90% Saline
Dosing: 10 mg/kg P.O. and 5 mg/kg I.V.

[2] = Rodent pharmacokinetics, male Balb/c mouse, plasma PK; format: in vivo; conditions: for clearance: male, Balb/c, mouse, iv; for clearance / AUC(0-inf) / AUC(0-t) / Cmax / half-life / Vd / Tmax / bioavailability: plasma; for Vd: read-out: Vss
Description: Animals in Group 1 were administered intravenously with Example B solution formulation in 20% Propylene Glycol, 50% of PEG 400 and 30% of (20% HPβCD in water) via tail vein at a dose of 3 mg/kg.
Animals in Group 2 were administered with oral solution formulation of Example B in 20% Propylene Glycol, 50% of PEG 400 and 30% of (20% HPβCD in water) at a dose of 10 mg/kg;
Dosing: 10 mg/kg P.O. and 3 mg/kg I.V.
Animals in Group 1 were administered intravenously with Example G solution formulation in 5% NMP, 5% solutol HS-15 in 90% HPβCD solution (20% HPβCD in RO water) at 3 mg/kg dose.
Animals in Group 2 were administered orally with 10 mg/kg solution formulation of Example G in 5% NMP, 5% solutol HS-15 in 90% HPβCD solution (20% HPβCD in RO water)

PI3K isoforms = assay: HTRF biochemical assay, fold selectivity between PI3K isoforms; conditions: isoform selectivity
From the text: (§1) Fold form selectivity inhibition data against PI3K isoforms, as determined using a HTRF biochemical assay, is listed below.

PI3K p110β = PI3K p110β (Homo sapiens, UniProt P42338); assay: HTRF biochemical assay, PI3K p110β
From the text: as §1

PI3K p110γ = PI3K p110γ (Homo sapiens, UniProt P48736); assay: HTRF biochemical assay, PI3K p110γ
From the text: as §1

PI3K p110δ = PI3K p110δ (Homo sapiens, UniProt O00329); assay: HTRF biochemical assay, PI3K p110δ
From the text: as §1

PI3K p110α = PI3K p110α (Homo sapiens, UniProt P42336); assay: HTRF biochemical assay, PI3K p110α
From the text: as §1

[3] = plasma, iv, 5 mg/kg, 5 mg/kg I.V., summary
[4] = plasma, iv, 5 mg/kg, Mesylate Salt
[5] = plasma, po, 10 mg/kg, Mesylate Salt
[6] = plasma, IV, 5 mg/kg, Mesylate Salt, read-out: Tmax
[7] = plasma, PO, 10 mg/kg, Mesylate Salt, read-out: Tmax
[8] = plasma, oral, 10 mg/kg P.O. and 5 mg/kg I.V., rounded summary in text, read-out: Oral bioavailability (F)
[9] = plasma, po, 10 mg/kg, summary table, unit inferred, read-out: Oral Bioavailability (F)
[10] = oral, 10 mg/kg P.O. and 3 mg/kg I.V., read-out: Oral bioavailability (F)
[11] = po, 10 mg/kg, summary table, unit inferred, read-out: Oral Bioavailability (F)

Sequence of PI3K p110δ (O00329 whole entry): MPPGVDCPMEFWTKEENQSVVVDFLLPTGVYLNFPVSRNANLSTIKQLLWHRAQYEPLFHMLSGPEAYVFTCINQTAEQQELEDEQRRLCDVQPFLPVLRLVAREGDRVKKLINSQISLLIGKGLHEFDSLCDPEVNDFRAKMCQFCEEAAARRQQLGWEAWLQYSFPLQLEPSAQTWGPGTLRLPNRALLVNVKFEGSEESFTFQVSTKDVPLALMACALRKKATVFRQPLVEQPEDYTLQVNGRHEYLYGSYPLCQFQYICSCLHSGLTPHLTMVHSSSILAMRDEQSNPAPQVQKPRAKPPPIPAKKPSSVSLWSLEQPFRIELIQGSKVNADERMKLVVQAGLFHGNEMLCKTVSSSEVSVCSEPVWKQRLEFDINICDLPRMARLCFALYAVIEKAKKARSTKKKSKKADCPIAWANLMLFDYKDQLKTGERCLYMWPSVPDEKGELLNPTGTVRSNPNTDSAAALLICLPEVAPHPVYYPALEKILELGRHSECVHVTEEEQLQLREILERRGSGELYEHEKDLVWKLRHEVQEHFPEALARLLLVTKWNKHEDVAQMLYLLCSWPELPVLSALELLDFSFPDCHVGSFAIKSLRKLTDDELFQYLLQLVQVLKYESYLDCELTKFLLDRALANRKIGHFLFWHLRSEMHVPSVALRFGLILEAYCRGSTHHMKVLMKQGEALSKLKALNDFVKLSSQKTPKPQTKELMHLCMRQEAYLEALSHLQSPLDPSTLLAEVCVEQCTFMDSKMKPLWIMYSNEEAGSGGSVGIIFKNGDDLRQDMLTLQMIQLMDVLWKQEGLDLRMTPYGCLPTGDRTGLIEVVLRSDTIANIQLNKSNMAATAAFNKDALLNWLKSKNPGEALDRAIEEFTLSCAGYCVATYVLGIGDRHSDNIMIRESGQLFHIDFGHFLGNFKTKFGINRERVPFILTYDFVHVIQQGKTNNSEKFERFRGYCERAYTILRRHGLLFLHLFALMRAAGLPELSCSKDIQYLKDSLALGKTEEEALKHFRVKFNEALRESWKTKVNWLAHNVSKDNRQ
Sequence of PI3K p110δ (P27986 whole entry partner): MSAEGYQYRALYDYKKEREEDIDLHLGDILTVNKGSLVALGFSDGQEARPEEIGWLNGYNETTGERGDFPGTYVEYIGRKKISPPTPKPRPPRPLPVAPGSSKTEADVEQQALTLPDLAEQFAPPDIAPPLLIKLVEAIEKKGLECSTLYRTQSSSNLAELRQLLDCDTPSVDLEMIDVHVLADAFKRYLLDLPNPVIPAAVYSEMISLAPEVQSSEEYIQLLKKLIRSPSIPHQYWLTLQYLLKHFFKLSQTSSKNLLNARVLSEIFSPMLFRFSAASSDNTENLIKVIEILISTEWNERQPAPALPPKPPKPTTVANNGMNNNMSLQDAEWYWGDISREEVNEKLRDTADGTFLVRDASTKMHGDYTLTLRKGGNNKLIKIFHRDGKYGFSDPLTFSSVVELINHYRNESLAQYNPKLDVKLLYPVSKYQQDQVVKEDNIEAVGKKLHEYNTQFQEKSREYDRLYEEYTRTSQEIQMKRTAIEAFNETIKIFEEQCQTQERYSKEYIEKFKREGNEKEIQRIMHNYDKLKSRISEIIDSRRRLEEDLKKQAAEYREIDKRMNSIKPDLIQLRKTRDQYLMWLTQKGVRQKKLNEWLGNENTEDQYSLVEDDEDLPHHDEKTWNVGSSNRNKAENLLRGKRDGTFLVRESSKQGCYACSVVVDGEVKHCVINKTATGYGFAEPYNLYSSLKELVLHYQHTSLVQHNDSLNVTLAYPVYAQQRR
Sequence of PI3K p110γ (P48736 whole entry): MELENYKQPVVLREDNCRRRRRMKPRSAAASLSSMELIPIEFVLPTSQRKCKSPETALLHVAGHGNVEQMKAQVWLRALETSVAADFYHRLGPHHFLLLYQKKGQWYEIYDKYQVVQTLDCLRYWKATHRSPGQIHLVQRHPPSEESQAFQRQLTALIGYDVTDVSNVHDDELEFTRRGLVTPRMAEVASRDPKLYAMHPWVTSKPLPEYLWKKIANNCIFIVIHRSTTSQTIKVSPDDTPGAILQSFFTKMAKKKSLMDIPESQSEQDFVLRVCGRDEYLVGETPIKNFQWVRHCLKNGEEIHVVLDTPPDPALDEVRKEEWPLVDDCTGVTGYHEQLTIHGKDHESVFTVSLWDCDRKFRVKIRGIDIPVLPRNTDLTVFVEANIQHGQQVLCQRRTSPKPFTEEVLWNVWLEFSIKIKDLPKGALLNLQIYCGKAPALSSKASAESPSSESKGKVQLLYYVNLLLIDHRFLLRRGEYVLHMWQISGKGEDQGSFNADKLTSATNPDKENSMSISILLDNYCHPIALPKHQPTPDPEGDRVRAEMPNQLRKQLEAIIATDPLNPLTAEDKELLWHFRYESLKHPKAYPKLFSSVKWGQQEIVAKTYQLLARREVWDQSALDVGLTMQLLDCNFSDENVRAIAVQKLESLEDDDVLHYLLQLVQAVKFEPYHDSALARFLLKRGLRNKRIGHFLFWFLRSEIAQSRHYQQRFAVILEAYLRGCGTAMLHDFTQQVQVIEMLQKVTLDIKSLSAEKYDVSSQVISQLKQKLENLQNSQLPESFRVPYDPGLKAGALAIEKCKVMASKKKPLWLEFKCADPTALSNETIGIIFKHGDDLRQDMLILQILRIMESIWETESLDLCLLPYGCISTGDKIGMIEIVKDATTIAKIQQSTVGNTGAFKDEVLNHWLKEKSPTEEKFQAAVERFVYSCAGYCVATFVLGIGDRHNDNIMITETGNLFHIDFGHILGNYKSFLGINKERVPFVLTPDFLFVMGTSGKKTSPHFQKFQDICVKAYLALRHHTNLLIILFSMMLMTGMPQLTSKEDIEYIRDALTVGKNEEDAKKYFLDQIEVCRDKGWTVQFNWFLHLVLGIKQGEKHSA
Sequence of PI3K p110α (P42336 whole entry): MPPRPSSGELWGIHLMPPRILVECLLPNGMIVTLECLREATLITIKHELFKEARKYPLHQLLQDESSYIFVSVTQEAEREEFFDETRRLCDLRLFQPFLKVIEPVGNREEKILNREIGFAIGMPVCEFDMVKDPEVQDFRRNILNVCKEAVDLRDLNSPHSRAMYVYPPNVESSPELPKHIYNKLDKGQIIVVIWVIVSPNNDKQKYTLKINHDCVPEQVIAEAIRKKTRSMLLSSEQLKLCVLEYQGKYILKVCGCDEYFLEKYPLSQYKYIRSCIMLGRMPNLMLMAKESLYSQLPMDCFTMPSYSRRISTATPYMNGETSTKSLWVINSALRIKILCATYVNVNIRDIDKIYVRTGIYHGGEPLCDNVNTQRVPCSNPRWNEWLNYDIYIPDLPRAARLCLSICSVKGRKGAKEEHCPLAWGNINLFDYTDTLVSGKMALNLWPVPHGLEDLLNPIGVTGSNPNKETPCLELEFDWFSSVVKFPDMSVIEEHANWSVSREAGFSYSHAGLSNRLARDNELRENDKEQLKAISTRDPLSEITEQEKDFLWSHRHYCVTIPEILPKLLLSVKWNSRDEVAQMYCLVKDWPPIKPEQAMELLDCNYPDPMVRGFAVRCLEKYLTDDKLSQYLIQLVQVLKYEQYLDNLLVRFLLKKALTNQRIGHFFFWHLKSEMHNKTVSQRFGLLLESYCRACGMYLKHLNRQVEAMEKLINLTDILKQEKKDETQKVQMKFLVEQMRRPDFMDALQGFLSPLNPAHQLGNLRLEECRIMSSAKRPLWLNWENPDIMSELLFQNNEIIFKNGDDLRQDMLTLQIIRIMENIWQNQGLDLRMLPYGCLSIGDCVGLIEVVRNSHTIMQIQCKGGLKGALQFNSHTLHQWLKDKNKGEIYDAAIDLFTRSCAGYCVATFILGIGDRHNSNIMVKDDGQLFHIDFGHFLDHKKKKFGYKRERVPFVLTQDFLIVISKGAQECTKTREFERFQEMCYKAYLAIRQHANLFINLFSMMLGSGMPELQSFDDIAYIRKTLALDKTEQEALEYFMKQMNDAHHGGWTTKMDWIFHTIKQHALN
Sequence of PI3K p110α (P27986 whole entry partner): as the sequence (P27986 whole entry partner) above
Sequence of PI3K p110β (P42338 whole entry): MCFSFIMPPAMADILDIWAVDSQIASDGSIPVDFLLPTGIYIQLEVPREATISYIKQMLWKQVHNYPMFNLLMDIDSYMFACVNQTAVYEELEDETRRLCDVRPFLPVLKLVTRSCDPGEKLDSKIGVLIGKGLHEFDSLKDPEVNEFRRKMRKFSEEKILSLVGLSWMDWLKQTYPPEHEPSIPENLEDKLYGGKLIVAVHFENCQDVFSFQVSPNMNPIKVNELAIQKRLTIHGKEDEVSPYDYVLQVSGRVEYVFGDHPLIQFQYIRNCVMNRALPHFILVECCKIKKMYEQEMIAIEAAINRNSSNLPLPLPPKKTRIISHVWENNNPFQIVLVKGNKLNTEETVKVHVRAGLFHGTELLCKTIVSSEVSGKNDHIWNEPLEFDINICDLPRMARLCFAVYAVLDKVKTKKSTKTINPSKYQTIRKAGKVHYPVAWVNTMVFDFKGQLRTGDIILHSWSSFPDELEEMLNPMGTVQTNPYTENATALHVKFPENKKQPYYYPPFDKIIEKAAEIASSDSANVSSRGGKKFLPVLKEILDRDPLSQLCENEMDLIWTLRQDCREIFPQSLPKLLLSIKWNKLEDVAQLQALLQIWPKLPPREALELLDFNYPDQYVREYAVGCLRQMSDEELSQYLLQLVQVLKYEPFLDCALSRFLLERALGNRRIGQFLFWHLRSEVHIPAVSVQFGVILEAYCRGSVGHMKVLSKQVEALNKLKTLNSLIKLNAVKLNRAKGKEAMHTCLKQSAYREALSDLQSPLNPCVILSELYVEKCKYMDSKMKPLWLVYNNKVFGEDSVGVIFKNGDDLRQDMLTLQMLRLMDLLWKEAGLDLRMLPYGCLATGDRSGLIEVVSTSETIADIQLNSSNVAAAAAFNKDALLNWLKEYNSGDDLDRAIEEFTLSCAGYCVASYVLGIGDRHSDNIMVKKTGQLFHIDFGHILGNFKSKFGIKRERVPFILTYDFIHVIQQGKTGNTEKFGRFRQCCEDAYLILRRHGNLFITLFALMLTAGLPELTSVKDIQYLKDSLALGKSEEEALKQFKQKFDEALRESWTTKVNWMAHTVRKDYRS
Sequence of PI3K p110β (P27986 whole entry partner): as the sequence (P27986 whole entry partner) above

Compound: c1cc(-c2nc(N3CCOCC3)c3oc4ncc(CN5C[C@@H]6C[C@H]5CO6)cc4c3n2)c2cc[nH]c2c1 [Example A, 4-(1H-Indol-4-yl)-6-(morpholin-4-yl)-12-[(1S,4S)-2-oxa-5-azabicyclo[2.2.1]heptan-5-ylmethyl]-8-oxa-3,5,10-triazatricyclo[7.4.0.0^2,7]trideca-1(13),2(7),3,5,9,11-hexaene]
- F ([1]; PO, 10 mg/kg, Mesylate Salt): 73.77%
- clearance [1, 3]: 21 mL/min/kg
- AUC [1, 4]: 3900 ng·h/mL
- AUC(0-inf) [1, 4]: 3950 ng·h/mL
- AUC(0-t) [1, 4]: 3900 ng·h/mL
- Cmax [1, 4]: 2640 ng/mL
- Vd [1, 4]: 2.44 L/kg
- clearance [1, 4]: 21.1 mL/min/kg
- half-life [1, 4]: 1.3 h
- AUC [1, 5]: 5620 ng·h/mL
- AUC(0-inf) [1, 5]: 5820 ng·h/mL
- AUC(0-t) [1, 5]: 5620 ng·h/mL
- Cmax [1, 5]: 1970 ng/mL
- half-life [1, 5]: 1.3 h
- Tmax [1, 6]: 0.08 h
- Tmax [1, 7]: 1 h
- bioavailability [1, 8]: 74%
- bioavailability [1, 9]: 74%

Compound: c1cc(-c2nc(N3CCOCC3)c3oc4ncc(CN5CCC6(CC5)COC6)cc4c3n2)c2cc[nH]c2c1 [Example B, 4-(1H-Indol-4-yl)-6-(morpholin-4-yl)-12-{2-oxa-7-azaspiro[3.5]nonan-7-ylmethyl}-8-oxa-3,5,10-triazatricyclo[7.4.0.027]trideca-1(13),2(7),3,5,9,11-hexaene]
- F ([2]; PO, 10 mg/kg, Mesylate Salt): 74%
- clearance ([2]; 3 mg/kg, 3 mg/kg I.V., summary): 33 mL/min/kg
- clearance ([2]; 3 mg/kg, Mesylate Salt): 33.1 mL/min/kg
- AUC(0-inf) ([2]; IV, 3 mg/kg, Mesylate Salt): 1510 ng·h/mL
- AUC(0-t) ([2]; IV, 3 mg/kg, Mesylate Salt): 1510 ng·h/mL
- Cmax ([2]; IV, 3 mg/kg, Mesylate Salt): 621 ng/mL
- half-life ([2]; IV, 3 mg/kg, Mesylate Salt): 1.23 h
- Vd ([2]; IV, 3 mg/kg, Mesylate Salt): 5.51 L/kg
- AUC(0-inf) ([2]; PO, 10 mg/kg, Mesylate Salt): 4100 ng·h/mL
- AUC(0-t) ([2]; PO, 10 mg/kg, Mesylate Salt): 3730 ng·h/mL
- Cmax ([2]; PO, 10 mg/kg, Mesylate Salt): 780 ng/mL
- Tmax ([2]; PO, 10 mg/kg, Mesylate Salt): 1 h
- bioavailability [2, 10]: 74%
- bioavailability [2, 11]: 74%
- Fold IC50 p110β/p110α (PI3K isoforms): ** (** = ≥50x)
- Fold IC50 p110β/p110γ (PI3K isoforms): ** (** = ≥50x)
- Fold IC50 p110δ/p110α (PI3K isoforms): ** (** = ≥50x)
- Fold IC50 p110δ/p110γ (PI3K isoforms): ** (** = ≥50x)

Compound: c1cc(-c2nc(N3CCOCC3)c3oc4ncc(CN5CCC56COC6)cc4c3n2)c2cc[nH]c2c1 [Example G, 4-(1H-indol-4-yl)-6-(morpholin-4-yl)-12-{6-oxa-1-azaspiro[3.3]heptan-1-ylmethyl}-8-oxa-3,5,10-triazatricyclo[7.4.0.0^2,7]trideca-1(13),2(7),3,5,9,11-hexaene]
- IC50 (PI3K p110β): ≤ 500 nM
- IC50 (PI3K p110γ): 500 to 1000 nM
- F ([2]; PO, 10 mg/kg, Mesylate Salt): 30%
- clearance ([2]; 3 mg/kg, 3 mg/kg I.V., summary): 26 mL/min/kg
- clearance ([2]; 3 mg/kg, Mesylate Salt): 25.8 mL/min/kg
- AUC(0-inf) ([2]; IV, 3 mg/kg, Mesylate Salt): 1940 ng·h/mL
- AUC(0-t) ([2]; IV, 3 mg/kg, Mesylate Salt): 1920 ng·h/mL
- Cmax ([2]; IV, 3 mg/kg, Mesylate Salt): 2210 ng/mL
- half-life ([2]; IV, 3 mg/kg, Mesylate Salt): 0.59 h
- Vd ([2]; IV, 3 mg/kg, Mesylate Salt): 1.25 L/kg
- AUC(0-inf) ([2]; PO, 10 mg/kg, Mesylate Salt): 2140 ng·h/mL
- AUC(0-t) ([2]; PO, 10 mg/kg, Mesylate Salt): 1890 ng·h/mL
- Cmax ([2]; PO, 10 mg/kg, Mesylate Salt): 833 ng/mL
- Tmax ([2]; PO, 10 mg/kg, Mesylate Salt): 0.25 h
- bioavailability [2, 10]: 30%
- bioavailability [2, 11]: 30%
- IC50 (PI3K p110δ): ≤ 500 nM
- IC50 (PI3K p110α): ≤ 500 nM

Results, then the compound that gave them:

- Fold IC50 p110β/p110α (PI3K isoforms): ** (** = ≥50x)
- Fold IC50 p110β/p110γ (PI3K isoforms): ** (** = ≥50x)
- Fold IC50 p110δ/p110α (PI3K isoforms): ** (** = ≥50x)
- Fold IC50 p110δ/p110γ (PI3K isoforms): ** (** = ≥50x)
Compound: CN1CCC2(CCN(Cc3cnc4oc5c(N6CCOCC6)nc(-c6cccc7[nH]ccc67)nc5c4c3)CC2)C1 [Example D, 4-(1H-Indol-4-yl)-12-({2-methyl-2,8-diazaspiro[4.5]decan-8-yl}methyl)-6-(morpholin-4-yl)-8-oxa-3,5,10-triazatricyclo[7.4.0.0^2,7]trideca-1(13),2(7),3,5,9,11-hexaene]

- Fold IC50 p110β/p110α (PI3K isoforms): ** (** = ≥50x)
- Fold IC50 p110β/p110γ (PI3K isoforms): ** (** = ≥50x)
- Fold IC50 p110δ/p110α (PI3K isoforms): ** (** = ≥50x)
- Fold IC50 p110δ/p110γ (PI3K isoforms): ** (** = ≥50x)
Compound: CN1CCC2(CCN(Cc3cnc4oc5c(N6CCOCC6)nc(-c6cccc7[nH]ccc67)nc5c4c3)C2)C1 (centres unmarked) [Example E, 4-(1H-Indol-4-yl)-12-({7-methyl-2,7-diazaspiro[4.4]nonan-2-yl}methyl)-6-(morpholin-4-yl)-8-oxa-3,5,10-triazatricyclo[7.4.0.0^2,7]trideca-1(13),2(7),3,5,9,11-hexaene]

- Tmax ([1]; IV, 5 mg/kg, HCl Salt): 0.08 h
- F ([1]; PO, 10 mg/kg, HCl Salt): 29.6%
- Tmax ([1]; PO, 10 mg/kg, HCl Salt): 1.0 h
- F ([1]; PO, 10 mg/kg, Mesylate Salt): 27.8%
- clearance [1, 3]: 66 mL/min/kg
- AUC ([1]; plasma, iv, 5 mg/kg, HCl Salt): 1480 ng·h/mL
- AUC(0-inf) ([1]; plasma, iv, 5 mg/kg, HCl Salt): 1520 ng·h/mL
- AUC(0-t) ([1]; plasma, iv, 5 mg/kg, HCl Salt): 1480 ng·h/mL
- Cmax ([1]; plasma, iv, 5 mg/kg, HCl Salt): 1710 ng/mL
- Vd ([1]; plasma, iv, 5 mg/kg, HCl Salt): 10.1 L/kg
- clearance ([1]; plasma, iv, 5 mg/kg, HCl Salt): 55 mL/min/kg
- half-life ([1]; plasma, iv, 5 mg/kg, HCl Salt): 7.6 h
- AUC [1, 4]: 1240 ng·h/mL
- AUC(0-inf) [1, 4]: 1260 ng·h/mL
- AUC(0-t) [1, 4]: 1240 ng·h/mL
- Cmax [1, 4]: 1620 ng/mL
- Vd [1, 4]: 4.6 L/kg
- clearance [1, 4]: 66.1 mL/min/kg
- half-life [1, 4]: 1.6 h
- AUC ([1]; plasma, po, 10 mg/kg, HCl Salt): 849 ng·h/mL
- AUC(0-inf) ([1]; plasma, po, 10 mg/kg, HCl Salt): 896 ng·h/mL
- AUC(0-t) ([1]; plasma, po, 10 mg/kg, HCl Salt): 849 ng·h/mL
- Cmax ([1]; plasma, po, 10 mg/kg, HCl Salt): 322 ng/mL
- half-life ([1]; plasma, po, 10 mg/kg, HCl Salt): 1.8 h
- AUC [1, 5]: 657 ng·h/mL
- AUC(0-inf) [1, 5]: 700 ng·h/mL
- AUC(0-t) [1, 5]: 657 ng·h/mL
- Cmax [1, 5]: 212 ng/mL
- half-life [1, 5]: 1.9 h
- Tmax [1, 6]: 0.08 h
- Tmax [1, 7]: 1 h
- bioavailability [1, 8]: 28%
- bioavailability [1, 9]: 28%
Compound: c1cc(-c2nc(N3CCOCC3)c3oc4ncc(CN5CCCCC5)cc4c3n2)c2cc[nH]c2c1 [Example I in WO2011/021038]
